# Experimental data reported in ChEMBL document CHEMBL1201862, “PubChem BioAssay data set” (2004).
# The source made the active and inactive calls.
# How the values were obtained:
# [1] = Luminescence Cell-Based Dose Confirmation HTS to Identify Activators of 5'UTR Stem-Loop Driven Alpha-Synuclein mRNA Translation in H4 Neuroglioblastoma Cells. [Related pubchem assays: 1829 (Project Summary), 1814 (Primary HTS)]; format: functional
# [2] = Luminescence Cell-Based Dose Response to Identify Activators of Luciferase Translation or Activity in H4-C Neuroglioblastoma Cells. [Related pubchem assays: 1829 (Project Summary), 1814 (Primary HTS)]; format: functional
# H4 = test: Luminescence Cell-Based Dose Response HTS to Identify Activators of 5'UTR Stem-Loop Driven Prion Protein mRNA Translation in H4 Neuroglioblastoma Cells. [Related pubchem assays: 1829 (Project Summary), 1814 (Primary HTS)]; format: functional; conditions: Homo sapiens
# [3] = Luminescence Cell-Based Dose Confirmation to Identify Activators of 5'UTR Stem-Loop Driven Alpha-Synuclein mRNA Translation in H4 Neuroglioblastoma Cells. [Related pubchem assays: 1829 (Project Summary), 1814 (Primary HTS)]; format: functional
# [4] = Luminescence Cell-Based Dose Response to Identify Activators of 5'UTR Stem-Loop Driven Prion Protein mRNA Translation in H4-C Neuroglioblastoma Cells. [Related pubchem assays: 1829 (Project Summary), 1814 (Primary HTS)]; format: functional
# [5] = Luminescence Cell-Based Dose Response HTS to Identify Activators of Luciferase Translation or Activity in H4 […] Cells. [Related pubchem assays: 1829 (Project Summary), 1814 (Primary HTS)]; format: functional
# Prothrombin = Prothrombin (Bos taurus, UniProt P00735); test: thrombin protease inhibitors – biochemical, fluorescence polarization, uHTS hits, dose response (AID 602369); format: functional
# [6] = molecular target: 26S proteasome non-ATPase regulatory subunit 14 (Homo sapiens, UniProt O00487); test: inhibition of proteasome subunit RPN11 – biochemical, fluorescence polarization, uHTS hits, confirmation (AID 602368); format: functional
# Sequence of 26S proteasome non-ATPase regulatory subunit 14 (O00487 whole entry): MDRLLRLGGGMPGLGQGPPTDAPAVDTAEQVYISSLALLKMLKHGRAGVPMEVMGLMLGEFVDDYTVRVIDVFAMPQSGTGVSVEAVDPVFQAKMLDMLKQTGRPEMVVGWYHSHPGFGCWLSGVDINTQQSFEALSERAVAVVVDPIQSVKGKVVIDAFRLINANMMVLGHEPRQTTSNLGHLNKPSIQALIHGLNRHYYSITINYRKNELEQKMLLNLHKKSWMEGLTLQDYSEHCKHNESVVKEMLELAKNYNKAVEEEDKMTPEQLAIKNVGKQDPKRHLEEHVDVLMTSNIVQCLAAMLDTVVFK
# [7] = molecular target: 72 kDa type IV collagenase (Homo sapiens, UniProt P08253); test: Dose Response validation of uHTS RPN11 inhibitor hits using a MMP-2 Fluorescence assay.; format: functional
# Sequence of 72 kDa type IV collagenase (P08253 whole entry): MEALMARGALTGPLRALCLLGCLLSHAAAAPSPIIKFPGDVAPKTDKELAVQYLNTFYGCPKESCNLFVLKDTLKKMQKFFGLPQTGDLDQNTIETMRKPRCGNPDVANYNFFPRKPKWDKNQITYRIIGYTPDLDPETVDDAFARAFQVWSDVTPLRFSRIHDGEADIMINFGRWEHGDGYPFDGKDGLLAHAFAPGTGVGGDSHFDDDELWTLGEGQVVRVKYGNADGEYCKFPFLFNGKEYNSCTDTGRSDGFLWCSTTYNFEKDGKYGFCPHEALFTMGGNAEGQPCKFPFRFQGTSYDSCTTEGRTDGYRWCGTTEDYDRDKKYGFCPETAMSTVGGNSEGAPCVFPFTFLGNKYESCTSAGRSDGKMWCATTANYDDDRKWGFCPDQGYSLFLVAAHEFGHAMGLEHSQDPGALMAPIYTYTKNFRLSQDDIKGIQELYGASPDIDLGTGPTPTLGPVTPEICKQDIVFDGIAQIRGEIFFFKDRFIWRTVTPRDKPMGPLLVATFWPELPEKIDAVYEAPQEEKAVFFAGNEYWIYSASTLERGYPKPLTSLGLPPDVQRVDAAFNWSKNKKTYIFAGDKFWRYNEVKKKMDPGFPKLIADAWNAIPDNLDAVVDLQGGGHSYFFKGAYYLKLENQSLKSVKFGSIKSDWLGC
# [8] = molecular target: Mitogen-activated protein kinase 10 (Homo sapiens, UniProt P53779); test: Dose response biochemical screening assay for inhibitors of c-Jun N-Terminal Kinase 3 (JNK3). [Related pubchem assays: 746 ]
# Sequence of Mitogen-activated protein kinase 10 (P53779 whole entry): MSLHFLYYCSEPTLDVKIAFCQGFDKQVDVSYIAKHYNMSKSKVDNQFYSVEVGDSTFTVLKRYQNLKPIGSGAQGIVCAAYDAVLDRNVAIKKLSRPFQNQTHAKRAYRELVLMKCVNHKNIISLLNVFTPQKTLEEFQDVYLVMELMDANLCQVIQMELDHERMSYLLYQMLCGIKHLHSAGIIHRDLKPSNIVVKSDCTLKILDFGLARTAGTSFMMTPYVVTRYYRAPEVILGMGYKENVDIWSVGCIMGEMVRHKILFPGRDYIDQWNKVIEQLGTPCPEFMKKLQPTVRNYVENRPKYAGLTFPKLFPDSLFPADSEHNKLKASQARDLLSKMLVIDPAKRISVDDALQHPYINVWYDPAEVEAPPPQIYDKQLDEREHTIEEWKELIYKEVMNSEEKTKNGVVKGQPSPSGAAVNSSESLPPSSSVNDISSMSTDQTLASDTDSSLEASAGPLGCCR
# Cytochrome P450 1A2 = molecular target: T1, Cytochrome P450 1A2 (Homo sapiens, UniProt P05177);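 also: PubChem cytochrome P450 panel assay, CYP1A2 panel member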
# T1 sequence (P05177 whole entry): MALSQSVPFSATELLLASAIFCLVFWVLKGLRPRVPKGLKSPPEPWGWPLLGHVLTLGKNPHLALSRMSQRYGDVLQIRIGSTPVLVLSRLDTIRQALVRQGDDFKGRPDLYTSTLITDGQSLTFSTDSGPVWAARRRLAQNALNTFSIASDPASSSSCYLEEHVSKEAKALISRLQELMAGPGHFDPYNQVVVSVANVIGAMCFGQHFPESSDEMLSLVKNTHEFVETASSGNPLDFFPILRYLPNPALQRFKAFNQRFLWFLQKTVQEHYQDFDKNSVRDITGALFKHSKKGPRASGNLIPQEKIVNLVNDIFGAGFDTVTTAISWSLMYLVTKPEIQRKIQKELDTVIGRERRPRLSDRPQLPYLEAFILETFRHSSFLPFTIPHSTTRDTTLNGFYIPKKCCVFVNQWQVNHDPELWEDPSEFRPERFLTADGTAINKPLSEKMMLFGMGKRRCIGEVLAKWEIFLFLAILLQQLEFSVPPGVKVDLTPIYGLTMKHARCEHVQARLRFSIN
# Cytochrome P450 2C19 = Cytochrome P450 2C19 (Homo sapiens, UniProt P33261); test: Cytochrome panel assay with activity outcomes. Panel member name: p450-cyp2c19 Compounds with AC50 equal or less than 10 uM are considered active; format: functional; conditions: read-out: AC50
# Sequence of Cytochrome P450 2C19 (P33261 whole entry): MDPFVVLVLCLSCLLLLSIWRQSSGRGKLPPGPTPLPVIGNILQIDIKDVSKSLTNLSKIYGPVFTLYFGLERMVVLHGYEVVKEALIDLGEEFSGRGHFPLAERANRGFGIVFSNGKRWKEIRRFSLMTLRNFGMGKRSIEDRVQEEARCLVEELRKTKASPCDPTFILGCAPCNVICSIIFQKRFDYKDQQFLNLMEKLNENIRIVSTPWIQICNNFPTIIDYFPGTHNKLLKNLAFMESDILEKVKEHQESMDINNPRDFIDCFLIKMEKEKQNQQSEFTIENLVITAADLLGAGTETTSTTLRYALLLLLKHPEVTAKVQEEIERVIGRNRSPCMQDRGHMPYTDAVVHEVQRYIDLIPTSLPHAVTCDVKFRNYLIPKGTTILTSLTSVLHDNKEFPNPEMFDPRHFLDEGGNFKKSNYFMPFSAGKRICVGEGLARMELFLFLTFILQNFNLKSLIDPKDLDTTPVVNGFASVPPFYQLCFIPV
# [9] = cytotoxicity toward HCT116 cells – cell-based, CellTiter-Glo luminescence, IC50, dose response (AID 1117332); format: functional; conditions: HCT-116
# [10] = cytotoxicity toward HT-29 cells – cell-based, CellTiter-Glo luminescence, IC50, dose response (AID 1117330); format: functional
# [11] = Reduced DLD-1 viability, concentration-response, CellTiter-Glo luminescence (AID 1117352); format: functional
# [12] = SNU-C1 cell viability reduction, dose response, CellTiter-Glo luminescence (AID 1117323); format: functional, cell-based
# [13] = cytotoxicity toward Colo320 cells – cell-based, CellTiter-Glo luminescence, IC50, dose response (AID 1117334); format: functional; conditions: COLO 320
# [14] = RKO cell viability reduction, dose response, CellTiter-Glo luminescence (AID 1117322); format: functional
# [15] = HCT116 cell viability decrease, GSK3B pretreatment – CellTiter-Glo, IC50, dose response (AID 1117339); format: functional; conditions: HCT-116
# [16] = CellTiter-Glo luminescence survival assay, SW480 colon tumor line, concentration-response curve, half-maximal inhibitory concentration (AID 1117338); format: functional
# [17] = Dd2 parasite growth inhibition in erythrocytes – SYBR Green, dry powder samples, set 9, dose response (AID 1159568); format: functional, cell-based
# [18] = molecular target: Voltage-dependent T-type calcium channel subunit alpha-1H (Homo sapiens, UniProt O95180); format: functional;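 also: channel activity triggered by adding a high calcium stimulation buffer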
# Fatty acid synthase [19] = molecular target: T2, Fatty acid synthase (Homo sapiens, UniProt P49327); test: inhibition of human FAS-TE enzyme activity – biochemical, kinetic fluorescence intensity, dose response (AID 624326); format: functional;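 also: rate of fluorescence rise from hydrolysis of a fluorogenic O-methyl fluorescein ester substrate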
# T2 sequence (P49327 whole entry): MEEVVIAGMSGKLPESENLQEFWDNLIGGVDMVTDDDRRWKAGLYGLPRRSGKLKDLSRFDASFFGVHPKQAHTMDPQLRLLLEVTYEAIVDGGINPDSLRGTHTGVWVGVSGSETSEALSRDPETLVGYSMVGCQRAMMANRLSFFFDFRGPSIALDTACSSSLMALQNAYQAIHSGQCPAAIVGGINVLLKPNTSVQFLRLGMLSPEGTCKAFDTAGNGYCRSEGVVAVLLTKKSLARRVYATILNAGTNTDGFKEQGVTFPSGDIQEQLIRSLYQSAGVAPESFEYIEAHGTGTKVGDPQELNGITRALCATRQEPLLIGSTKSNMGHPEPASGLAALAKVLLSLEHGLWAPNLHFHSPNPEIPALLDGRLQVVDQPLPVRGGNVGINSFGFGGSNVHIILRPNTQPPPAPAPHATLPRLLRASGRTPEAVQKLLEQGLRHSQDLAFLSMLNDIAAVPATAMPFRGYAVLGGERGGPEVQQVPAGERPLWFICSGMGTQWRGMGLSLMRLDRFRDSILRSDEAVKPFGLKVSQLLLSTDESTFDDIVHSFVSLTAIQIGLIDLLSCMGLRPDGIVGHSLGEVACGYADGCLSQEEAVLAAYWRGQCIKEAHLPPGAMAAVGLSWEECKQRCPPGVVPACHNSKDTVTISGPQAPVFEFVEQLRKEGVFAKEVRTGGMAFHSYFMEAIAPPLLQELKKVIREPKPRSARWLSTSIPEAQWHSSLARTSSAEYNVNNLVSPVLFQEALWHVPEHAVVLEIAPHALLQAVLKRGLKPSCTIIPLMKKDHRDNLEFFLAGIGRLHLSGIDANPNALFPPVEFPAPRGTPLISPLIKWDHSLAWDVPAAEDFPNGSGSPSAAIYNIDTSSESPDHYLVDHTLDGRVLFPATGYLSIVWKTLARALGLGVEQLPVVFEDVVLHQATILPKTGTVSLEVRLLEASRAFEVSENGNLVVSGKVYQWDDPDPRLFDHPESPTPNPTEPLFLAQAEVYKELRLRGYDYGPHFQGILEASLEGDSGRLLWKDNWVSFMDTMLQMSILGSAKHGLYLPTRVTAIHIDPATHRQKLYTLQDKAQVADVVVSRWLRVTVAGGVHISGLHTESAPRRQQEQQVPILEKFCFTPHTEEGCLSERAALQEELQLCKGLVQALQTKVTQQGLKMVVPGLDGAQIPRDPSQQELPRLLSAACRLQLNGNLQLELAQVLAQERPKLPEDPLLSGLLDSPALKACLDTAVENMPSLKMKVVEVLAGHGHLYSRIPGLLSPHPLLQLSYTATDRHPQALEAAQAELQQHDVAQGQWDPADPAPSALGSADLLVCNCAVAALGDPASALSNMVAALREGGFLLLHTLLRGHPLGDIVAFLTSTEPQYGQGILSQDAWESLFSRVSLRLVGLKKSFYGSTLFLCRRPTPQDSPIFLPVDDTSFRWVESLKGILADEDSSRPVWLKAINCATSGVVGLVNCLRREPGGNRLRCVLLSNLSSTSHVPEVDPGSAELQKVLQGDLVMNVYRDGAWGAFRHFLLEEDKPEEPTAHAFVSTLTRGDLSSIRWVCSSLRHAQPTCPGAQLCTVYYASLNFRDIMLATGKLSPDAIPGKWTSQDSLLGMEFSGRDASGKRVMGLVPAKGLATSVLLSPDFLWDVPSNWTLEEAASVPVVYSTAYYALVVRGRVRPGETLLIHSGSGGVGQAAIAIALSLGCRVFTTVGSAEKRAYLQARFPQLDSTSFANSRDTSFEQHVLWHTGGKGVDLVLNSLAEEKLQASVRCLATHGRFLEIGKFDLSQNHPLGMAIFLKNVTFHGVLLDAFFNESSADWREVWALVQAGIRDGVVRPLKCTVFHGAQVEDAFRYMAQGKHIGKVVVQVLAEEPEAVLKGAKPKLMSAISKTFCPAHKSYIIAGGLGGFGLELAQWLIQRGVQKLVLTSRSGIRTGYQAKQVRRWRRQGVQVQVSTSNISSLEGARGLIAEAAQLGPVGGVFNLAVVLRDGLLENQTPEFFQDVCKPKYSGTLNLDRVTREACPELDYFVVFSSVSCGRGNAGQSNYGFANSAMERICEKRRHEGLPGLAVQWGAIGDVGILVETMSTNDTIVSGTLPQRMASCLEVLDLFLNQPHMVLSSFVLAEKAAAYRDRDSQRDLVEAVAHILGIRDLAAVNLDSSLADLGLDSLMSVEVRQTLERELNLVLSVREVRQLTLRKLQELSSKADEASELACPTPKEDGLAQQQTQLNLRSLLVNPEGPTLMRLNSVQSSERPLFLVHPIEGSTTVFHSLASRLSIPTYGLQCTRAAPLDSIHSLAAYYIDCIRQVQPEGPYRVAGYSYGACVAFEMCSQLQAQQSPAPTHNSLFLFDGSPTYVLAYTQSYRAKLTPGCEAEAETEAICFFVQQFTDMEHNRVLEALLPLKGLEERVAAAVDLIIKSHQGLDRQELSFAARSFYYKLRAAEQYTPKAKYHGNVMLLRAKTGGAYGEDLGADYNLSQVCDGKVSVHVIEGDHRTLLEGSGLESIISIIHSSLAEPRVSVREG
# BJ [20] = test: cells; format: functional, cell-based; conditions: Homo sapiens
# [21] = luciferase reporter signal suppression in cells – H4 neuroglioma cells, luminescence, dose response (AID 1990); format: functional, cell-based
# BJ [22] = test: BJ-TERT-LT-ST fibroblast viability loss – cell-based, RAS-independent, luminescence, dose response (AID 1935); format: functional; conditions: Homo sapiens;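 also: BJ fibroblasts immortalized with TERT plus LT and ST oncogenes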
# BJ [23] = test: BJ-TERT fibroblast viability loss – cell-based, RAS-independent, luminescence, dose response (AID 1933); format: functional; conditions: Homo sapiens
# Fatty acid synthase [24] = molecular target: T2, Fatty acid synthase; test: inhibition of human FAS-TE enzyme activity – biochemical, endpoint fluorescence intensity, uHTS hits, dose response (AID 624327); format: functional;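 also: fluorescence from hydrolysis of an O-methyl fluorescein acyl ester substrate by the enzyme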
# [25] = loss of viability in HepG2 cells – cell-based, CellTiter-Glo, cherry-picked, cytotoxicity control for Shn3 inhibitor project, dose response (AID 624134); format: functional
# [26] = Luminescence Cell-Based Dose Response HTS to Identify Inhibitors of 5'UTR Stem-Loop Driven Prion Protein mRNA Translation in H4 Neuroglioblastoma Cells. [Related pubchem assays: 1827 (Project Summary), 1813 (Primary HTS)]; format: functional
# [27] = alpha-synuclein stem-loop luciferase translation blockers – H4 neuroglioma cells, luminescence, confirmation (AID 1988); format: functional, cell-based
# [28] = reduction of Shn3 3'UTR-driven luciferase in osteoblasts – cell-based, Clone20 osteoblasts, firefly luciferase, cherry-picked, dose response (AID 624132); format: functional;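 also: firefly luciferase luminescence from reporter carrying the Shn3 3'UTR in osteoblasts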
# [29] = non-specific 3'UTR reporter inhibition in Clone20-Shn3RL – cell-based, Renilla luciferase, cherry-picked, counter-screen for Shn3 inhibitor project, dose response (AID 624133); format: functional
# BJ [30] = test: growth inhibition of engineered Ras-driven BJ cells – cell-based, alamar blue fluorescence, cherrypicked samples, dose response (AID 2631); format: functional; conditions: Homo sapiens;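 also: confirmatory dose-response assay in RAS-dependent BJ fibroblasts engineered with TERT, LT and ST, with cytotoxicity read by fluorescence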
# Vero = test: mammalian cell viability reduction – secondary assay, cytotoxicity control for West Nile virus antiviral project, dose response (AID 1650); format: functional; conditions: Chlorocebus sabaeus
# [31] = DRD fibroblast viability loss – cell-based, non-viral oncogenic, luminescence, dose response (AID 1934); format: functional; conditions: Homo sapiens
structure (smiles),measurement,setting,value
CCOC(=O)c1csc(-c2ccc3c(c2)CCO3)n1,EC50,[1],0.127 µM (active)
same,EC50,[2],> 12 µM (not active)
same,EC50,H4,0.552 µM (active)
same,EC50,[3],> 12 µM (not active)
same,EC50,[4],> 12 µM (not active)
same,EC50,[5],< 0.1 µM (active)
COC(=O)c1c(-c2cccnc2)csc1NC(=O)c1cc(C)on1,EC50,[2],0.387 µM (active)
same,EC50,H4,19.9 µM (inconclusive)
same,EC50,[3],0.435 µM (active)
same,IC50,Prothrombin,48.3 µM (active)
same,EC50,[4],0.321 µM (active)
same,EC50,[5],< 0.1 µM (inconclusive)
same,IC50,[6],29.6 µM (active)
same,IC50,[7],> 100 µM (inactive)
Cc1cc(C(F)F)n2ncc(C(=O)NCc3ccccc3C(F)(F)F)c2n1,IC50,[8],26.2 µM (not active)
same,AC50,Cytochrome P450 1A2,0.708 µM (inconclusive)
same,AC50,Cytochrome P450 2C19,6.31 µM (inconclusive)
Cc1ccc(C(=O)c2cc(O)c(O)c([N+](=O)[O-])c2)cc1 [TOLCAPONE],IC50,[9],2.29 µM (active)
same,IC50,[10],> 20 µM (inactive)
same,IC50,[11],6.14 µM (inactive)
same,IC50,[12],4.54 µM (active)
same,IC50,[13],2.5 µM (active)
same,IC50,[14],1.88 µM (active)
same,IC50,[15],0.265 µM (active)
same,IC50,[16],4.64 µM (active)
COc1ccccc1S(=O)(=O)N(C)C[C@@H]1OCc2ccccc2-c2ccccc2C(=O)N([C@H](C)CO)C[C@@H]1C,AC50,[17],4.71 µM (active)
CCn1cc(C(=O)NCc2ccco2)c(=O)c2cc(S(=O)(=O)N3CC(C)CC(C)C3)ccc21 (stereo unspecified),EC50,[18],2.49 µM (active)
same,IC50,Fatty acid synthase [19],4.14 µM (active)
same,EC50,BJ [20],5.24 µM (active)
same,EC50,[21],9.5 µM (active)
same,EC50,BJ [22],> 150 µM (inconclusive)
same,EC50,BJ [23],> 150 µM (not active)
same,IC50,Fatty acid synthase [24],4.25 µM (active)
same,AC50,[25],4.32 µM (active)
same,EC50,[26],0.503 µM (active)
same,EC50,[27],10.9 µM (active)
same,AC50,[28],0.778 µM (active)
same,AC50,[29],1.67 µM (active)
same,EC50,BJ [30],> 133 µM (inactive)
same,CC50,Vero,32.1 µM (active)
same,EC50,[31],7.64 µM (active)
